Bounds are passed on as bounds.

In general, EC50 refers to the concentration giving half of the maximal effect. Low values mean an effect from little substance, high ones a need for much substance.

The target of the assay is T1, ADAR1 (Homo sapiens, UniProt P55265).
T1 construct: endogenous in cells; host or cells: p110 KO A549 dual cells
T1 sequence (P55265 1-1226): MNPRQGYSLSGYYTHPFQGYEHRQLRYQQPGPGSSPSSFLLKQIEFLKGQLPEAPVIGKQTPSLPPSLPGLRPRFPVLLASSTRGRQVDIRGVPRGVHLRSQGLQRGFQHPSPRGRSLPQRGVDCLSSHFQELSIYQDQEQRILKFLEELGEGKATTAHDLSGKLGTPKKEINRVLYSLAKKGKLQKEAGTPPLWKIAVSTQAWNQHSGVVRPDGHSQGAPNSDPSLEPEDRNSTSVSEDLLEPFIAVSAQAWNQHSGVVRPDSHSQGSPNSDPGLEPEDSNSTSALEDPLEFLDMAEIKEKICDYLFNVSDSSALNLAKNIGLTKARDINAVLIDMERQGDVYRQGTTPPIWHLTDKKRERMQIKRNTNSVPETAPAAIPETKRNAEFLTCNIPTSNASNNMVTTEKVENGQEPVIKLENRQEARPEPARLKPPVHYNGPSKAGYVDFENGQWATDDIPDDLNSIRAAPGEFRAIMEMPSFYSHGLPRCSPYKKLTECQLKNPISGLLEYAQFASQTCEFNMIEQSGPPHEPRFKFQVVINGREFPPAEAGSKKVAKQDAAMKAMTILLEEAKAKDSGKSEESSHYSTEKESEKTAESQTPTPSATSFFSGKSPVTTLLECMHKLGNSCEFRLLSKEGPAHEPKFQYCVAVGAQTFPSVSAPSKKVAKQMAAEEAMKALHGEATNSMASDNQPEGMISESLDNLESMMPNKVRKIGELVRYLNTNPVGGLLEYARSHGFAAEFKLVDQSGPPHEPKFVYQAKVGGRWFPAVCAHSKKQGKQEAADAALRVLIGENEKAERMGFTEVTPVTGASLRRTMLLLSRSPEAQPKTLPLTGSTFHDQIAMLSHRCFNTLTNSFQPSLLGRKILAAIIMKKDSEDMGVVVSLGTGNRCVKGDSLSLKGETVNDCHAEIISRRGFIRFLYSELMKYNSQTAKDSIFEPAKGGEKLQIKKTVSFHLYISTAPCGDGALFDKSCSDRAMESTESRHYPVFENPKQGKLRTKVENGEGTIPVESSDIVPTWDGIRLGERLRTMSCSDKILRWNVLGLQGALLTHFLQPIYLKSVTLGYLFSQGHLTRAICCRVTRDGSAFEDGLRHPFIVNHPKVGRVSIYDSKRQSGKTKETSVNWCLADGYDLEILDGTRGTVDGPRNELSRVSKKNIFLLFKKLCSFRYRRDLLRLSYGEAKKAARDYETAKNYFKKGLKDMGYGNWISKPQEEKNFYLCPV
Description: ADAR1 Inhibition Assay (IFN fold-induction, Quanti-Luc luminescence, p110 KO A549 dual cells). To be noted: IFN fold-induction vs DMSO, 24 and 48 h. It counts as cell-based. The procedure, abridged:
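EC50 derived from IFN fold-induction, calculated as sample RLU over average DMSO RLU. Luminescence measured by Quanti-Luc on samples taken after 24 and 48 h of compound exposure (1% DMSO final, 37 °C, 5% CO2). Cells were p110 KO A549 dual, seeded at 20,000 per well in supplemented DMEM.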
Take `CCOC(=O)c1cc(-c2ccc3c(c2)OCCO3)sc1NC(=O)COC(=O)c1cccc(NS(C)(=O)=O)c1` [Compound 317]: the concentration giving a half-maximal response (EC50) was above 100 µM.
In the case of `CCOC(=O)c1cc(-c2ccccc2)sc1NC(=O)COc1cc(C(F)(F)F)nc(NS(C)(=O)=O)n1` [Compound 300], the EC50 was above 100 µM.
The figure for `CCOC(=O)c1cc(-c2ccccc2)sc1NC(=O)COC(=O)c1cccc(NS(C)(=O)=O)n1` [Compound 183] is above 100 µM.
As to `CCOC(=O)c1cc(-c2ccccc2)sc1NC(=O)Cn1ccc(=O)c(O)c1C` [Compound 319], the 50% effective concentration (EC50) is above 100 µM.
The compound `CCOC(=O)c1cc(-c2ccccc2)sc1NC(=O)COCc1cccc(N(S(C)(=O)=O)S(C)(=O)=O)c1` [Compound 179] showed a half-maximal effective concentration (EC50) above 100 µM.
In turn, `CCOC(=O)c1cc(-c2ccccc2)sc1NC(=O)COC(=O)c1ccccc1` [Compound 5] returned an EC50 above 100 µM.
To `CCOC(=O)c1cc(-c2ccc(C(=O)Nc3cccc(NS(C)(=O)=O)c3)cc2)sc1NC(C)=O` [Compound 266] belongs above 100 µM.
Turning to `CCOC(=O)c1cc(-c2ccccc2)sc1NC(=O)CNC(=O)Cc1cccc(S(C)(=N)=O)c1` (centres unmarked) [Compound 338], the half-maximal effective concentration (EC50) is above 100 µM.
Regarding `CCOC(=O)c1cc(-c2ccccc2)sc1NC(=O)COC(C)c1cccc(NS(C)(=O)=O)c1` (centres unmarked) [Compound 240], the EC50 was above 100 µM.
To `CCOC(=O)c1cc(-c2ccccc2)sc1NC(=O)c1nncn1-c1cccc(NS(C)(=O)=O)c1` [Compound 272] belongs above 100 µM; to `CCOC(=O)c1cc(-c2ccccc2C#N)sc1NC(=O)COC(=O)c1cccc(NS(C)(=O)=O)c1` [Compound 197], above 100 µM.
Compound `CCNC(=O)c1cc(-c2ccccc2)sc1NC(=O)CNC(=O)c1cccc(NS(C)(=O)=O)c1` [Compound 410] displayed an EC50 of 50 to 100 µM.
The figure for `CCOC(=O)c1cc(-c2ccccc2)sc1NC(=O)CNC(=O)c1cccc(S(=O)(=O)N2CCCCC2)c1` [Compound 36] is above 100 µM; for `CCOC(=O)c1cc(-c2ccccc2)sc1NC(=O)CS(=O)(=O)c1cccc(NS(C)(=O)=O)c1` [Compound 297] it is above 100 µM.
Turning to `CCNC(=O)c1cc(-c2ccccc2)sc1NC(=O)COC(=O)c1cccc(NS(C)(=O)=O)c1` [Compound 117], the concentration giving a half-maximal response (EC50) is above 100 µM.
Compound `CS(=O)(=O)Nc1cccc(C(=O)NNC(=O)c2csc(-c3ccccc3)c2)c1` [Compound 281] came in with an EC50 above 100 µM.
To `CCOC(=O)c1cc(-c2ccccc2)sc1NC(=O)C1CCCN(C(=O)c2cccc(NS(C)(=O)=O)c2)C1` (centres unmarked) [Compound 152] belongs above 100 µM.
To `NS(=O)(=O)c1cccc(C(=O)NCC(=O)Nc2ccc3cc(Br)ccc3c2)c1` [Compound 43] belongs above 100 µM.
`CCOC(=O)c1cc(-c2ccccc2)sc1NC(=O)C1CCN(S(=O)(=O)c2cccc(NS(C)(=O)=O)c2)C1` (centres unmarked) [Compound 227] had an EC50 above 100 µM.
`CCOC(=O)c1cc(-c2ccccc2)sc1NC(=O)c1nc(-c2cccc(NS(C)(=O)=O)c2)no1` [Compound 255] displayed an EC50 above 100 µM.
The figure for `NS(=O)(=O)c1cccc(C(=O)NCC(=O)Nc2ccc(-c3ccccc3)s2)c1` [Compound 18] is above 100 µM; for `CCOC(=O)c1cc(-c2ccccc2)sc1NC(=O)CN(C)C(=O)c1cccc(S(N)(=O)=O)c1` [Compound 122] it is above 100 µM; for `CS(=O)(=O)Oc1cccc(C(=O)OCC(=O)Nc2sc(-c3ccccc3)cc2C(N)=O)c1` [Compound 84] it is above 100 µM.
The compound `CCOC(=O)c1cc(-c2ccccc2)sc1NC(=O)COC(=O)c1cccc(S(=O)(=O)N2CCC(N)C2)c1` (centres unmarked) [Compound 59] came in with an EC50 above 100 µM.
`CCOC(=O)c1cc(-c2ccccc2)sc1NC(=O)C1CCN(C(=O)c2cccc(NS(C)(=O)=O)c2)CC1` [Compound 168] had an EC50 above 100 µM.
The compound `CCOC(=O)c1cc(-c2ccccc2)sc1NC(=O)Cn1nc(-c2cccc(NS(C)(=O)=O)c2)oc1=O` [Compound 288] returned an EC50 above 100 µM.
The figure for `CCOC(=O)c1cc(-c2ccccc2)sc1NC(=O)CN1C(=O)CN(S(C)(=O)=O)C1=O` [Compound 239] is above 100 µM.
With `CCOC(=O)c1cc(-c2ccccc2)sc1NC(=O)C1CC2(CC2)CN1C(=O)c1cccc(NS(C)(=O)=O)c1` (centres unmarked) [Compound 148], the EC50 is above 100 µM.
Turning to `CCOC(=O)c1ccnc(-c2ccccc2)c1NC(=O)COC(=O)c1cccc(NS(C)(=O)=O)c1` [Compound 375], the EC50 was above 100 µM.
Compound `CCOC(=O)c1cc(-c2ccccc2)sc1NC(=O)C1CCN(C(=O)c2cccc(S(N)(=O)=O)c2)C1` (centres unmarked) [Compound 425] returned an EC50 above 100 µM.
Compound `CCOC(=O)c1cc(-c2ccccc2)sc1NC(=O)CCNc1cccc(NS(C)(=O)=O)c1` [Compound 169] came in with an EC50 above 100 µM.
The figure for `CCOC(=O)c1cc(-c2ccccc2)sc1NC(=O)Cn1cc(CS(=O)(=O)c2cccc(NS(C)(=O)=O)c2)nn1` [Compound 362] is above 100 µM; for `CCOC(=O)c1cc(-c2ccccc2)sc1NC(=O)CNC(=O)c1ccc(S(N)(=O)=O)cc1` [Compound 24] it is above 100 µM; for `CCOC(=O)c1cc(-c2ccccc2)sc1NC(=O)COC(=O)c1ccc(S(N)(=O)=O)cc1` [Compound 68] it is above 100 µM.
`CCOC(=O)c1cc(-c2ccccc2)sc1NC(=O)COCc1cccc(NS(C)(=O)=O)c1` [Compound 207] registered an EC50 above 100 µM.
The compound `CCOC(=O)c1cc(-c2ccccc2)sc1NC(=O)CONC(=O)c1cccc(NS(C)(=O)=O)c1` [Compound 282] returned an EC50 above 100 µM.
`CCOC(=O)c1cc(-c2ccccc2)sc1NC(=O)COC(=O)C1CCCN(S(C)(=O)=O)C1` (centres unmarked) [Compound 142] gave an EC50 above 100 µM.
Compound `CCOC(=O)c1cc(C2CC2)sc1NC(=O)COC(=O)c1cccc(NS(C)(=O)=O)c1` [Compound 230] had an EC50 above 100 µM.
Compound `CS(=O)(=O)Nc1cccc(-c2nc3sc(-c4ccccc4)cc3c(=O)[nH]2)c1` [Compound 286] gave an EC50 above 100 µM.
Take `CS(=O)(=O)Nc1cccc(NC(=O)CSc2nc(N)nc3nc[nH]c23)c1` [Compound 194]: the EC50 was above 100 µM.
Turning to `CCOC(=O)c1cc(-c2ccccc2)sc1NC(=O)CNC(=O)c1ccc(F)c(S(N)(=O)=O)c1` [Compound 31], the EC50 is above 100 µM.
As for `CCOC(=O)c1cc(-c2cccc(OC)c2)sc1NC(=O)COC(=O)c1cccc(NS(C)(=O)=O)c1` [Compound 211], the EC50 was above 100 µM.
Regarding `CCOC(=O)c1cc(C)sc1NC(=O)COC(=O)c1cccc(NS(C)(=O)=O)c1` [Compound 204], the EC50 is above 100 µM.
`CCOC(=O)c1c(NC(=O)COC(=O)c2cccc(NS(C)(=O)=O)c2)sc2c1CCCC2` [Compound 89] showed an EC50 above 100 µM.
In the case of `CCOC(=O)c1cc(-c2ccc(C(=O)O)cc2)sc1NC(=O)COC(=O)c1cccc(NS(C)(=O)=O)c1` [Compound 226], the EC50 was above 100 µM.
To `CCOC(=O)c1cc(-c2ccccc2)sc1S(=O)(=O)N1CCN(C(=O)c2cccc(NS(C)(=O)=O)c2)CC1` [Compound 309] belongs 50 to 100 µM.
In turn, `CCOC(=O)c1cc(-c2ccccc2)sc1NC(=O)[C@@H]1CCCN1C(=O)c1cccc(P(=O)(OCC)OCC)c1` [Compound 393] came in with an EC50 above 100 µM.

For the origin of these results see patent US20260200890A1, “ADAR1 INHIBITORS AND METHODS OF USING THE SAME” (AVAMMUNE THERAPEUTICS INC., priority 2022, published 2026).
